Measured values as given in patent publication US10092000B2, “Structure, synthesis, and applications for oligo phenylene ethynylenes (OPEs)” (STC.UNM, priority 2010, dated 2018).
“And” between values parts separate entries of the source, which are not always exact repeats. Equal entries are not always repeated. “Also recorded” adds a separate entry of the source.

Key:
Solubility in solvents = type: physicochemical
[1] = tested on: E.coli, S.epidermis, and S.aureus; experiment: Dead/live assays, biocidal activity stated without singling out a bacterium; type: cell-based; details: UV irradiation
Experimental: (§1) Dead/live assays were performed to test the biocidal activity of EO-OPE-1(C3, A), EO-OPE-1 (C2, A), EO-OPE-1 (C3, S) and EO-OPE-1 (Th, C3, A) against E.coli, S.epidermis, and S.aureus. E.coli, S.epidermis, and S.aureus were cultured in 50 mL of Difco™ Nutrient broth (LOT 4057492, Becton, Dickinson and Company, Sparks, Md. 21152 USA), Difco™ Nutrient broth (LOT 4057492, Becton, Dickinson and Company, Sparks, Md. 21152 USA), and BBL™ Brain Heart Infusion (LOT 8263271, Becton, Dickinson and Company, Sparks, Md. 21152 USA), respectively, for 18 h at 37° C. under shaking. The bacteria were collected by centrifuging 50 mL of culture at 4,000 rpm in an Eppendorf centrifuge for 15 min at 4° C. The pellet was re-suspended with the assistance of vortex in 25 mL of 0.85% NaCl solution and repelleted. The wash cycle was repeated twice. Bacterial concentrations were measured and normalized using a disposal hemocytometer (INCYTO Co., Ltd), counts being 2.5˜3.0×10^7/mL. The diluted bacteria suspension was added to 1.5 mL of black and transparent microtubes in aliquots of 500 μL for dark and light samples, respectively. Three groups of live controls were prepared with cells suspended in black microtubes, transparent microtubes, and quartz cuvettes at the same concentrations, but without chemicals. These bacteria samples were titrated by OPEs with various concentrations followed by staying in dark for dark samples/controls and exposing to UV irradiation in a photoreactor chamber for light samples/controls with certain duration.
(§2) Dead/live assays were carried out using two sets of stains: SYTO 9/Propidium iodide for E.coli and SYTO 24/Propidium iodide for S.epidermis and S.aureus. SYTO 9 and SYTO 24 are cell membrane permeant nucleic acid stains with green (˜498 nm for SYTO 9 and ˜515 nm for SYTO 24) fluorescence and used to stain both live and dead cells; Propidium iodide is a red-fluorescent nucleic acid stain that is membrane impermeable to viable cells but stains DNA or RNA of dead cells with comprised membranes and emits red (˜617 nm) fluorescence, indicating cell death. Upon the completion of the above treatment, a 1 to 1 ratio mixture of the two dyes was prepared and added into the samples (2.4 μL mixed dyes for 500 μL suspension) and incubated for 15 minutes in the dark. Bacteria were then examined under a 40× oil objective on a Zeiss LSM 510 Meta confocal laser scanning microscope and an Accuri C6 flow cytometer to identify and quantify those live and dead bacteria.

[2] = Absorption and fluorescence spectroscopy; type: physicochemical; details: for absorbance intensity after 30 min relative to that measured at 1 min: 10 μM in H2O
Experimental: (§3) Photophysical study. For the absorption and fluorescence spectroscopy, we prepared a stock solution with concentration of 1 mM oligomer and 10% v/v solution of DMSO in H2O. 30 μL of the sonicated suspension of each EO-OPE-1 was diluted into 3 mL solution in a quartz cuvette to give a concentration of 10 μM. Absorption and fluorescence were performed on plate reader (SpectroMax M-5 microplate reader, Molecular Devices) at 24° C. Transient absorption spectra were recorded for EO-OPE-1 samples in both methanol and water. Transient absorption spectra were collected using laser systems that are described elsewhere 1, 2. The optical density was adjusted to 0.7 at the excitation wavelength (355 nm) with the laser energy being 6-7 mJ. Solutions were purged with argon for […] before making transient absorption spectroscopy measurements.

[3] = Transient absorption spectroscopy (triplet state); type: physicochemical
Experimental: as §3
Singlet oxygen generation. Excited triplet state (ETS) plays an essential role in the generation of ROS and 1O2. […] Another important point to note is that all members of EO-OPE-1 series underwent fast photobleaching in water during TA experiments (approximately 40-50% reduction in signal intensity). To minimize the error due to photobleaching, fresh samples were prepared and used in each run. […] On the other hand, the triplet lifetimes for EO-OPE-1(C3, A), EO-OPE-1 (C2, A), EO-OPE-1 (C3, S), and EO-OPE-1 (Th, C3, A) are 5.2 μs, 17.9 μs, 18.7 μs, and 7.2 μs, respectively. Based on the above discussions, we would expect C will give a higher yield of 1O2, with lower yields for EO-OPE-1 (C2, A), EO-OPE-1(C3, A), and EO-OPE-1 (C3, S).

bacteriophage MS2 = experiment: Phage inactivation, phage titer (PFU), MS2; type: cell-based; details: 10 ug/ml, UV-light, 1 hour
Experimental: (§4) Bacteriophage Preparation and Titer. E. coli cells were grown in the standard Luria broth. The fresh E. coli culture was inoculated from an overnight culture followed by approximately three hours incubation at 37° C. to the exponential growth phase (O.D.600˜0.5). At this growth phase, the E. coli cells were collected by centrifuge and washed with Escherichia coli minimal medium (Glucose 5 g/L, Na2HPO4 6 g/L, KH2PO4 3 g/L, NH4Cl 1 g/L, NaCl 0.5 g/L, MgSO4, 0.12 g/L, CaCl2 0.01 g/L, pH 7.2) twice. The cell pellet was resuspended with minimal medium. The phage stock solutions were added into their corresponding bacterial host suspensions the phage-bacteria mixture incubated for 15 minutes at 37° C. for infection. The phage-bacteria mixture was transferred into fresh Escherichia coli minimal medium and incubated overnight for viral replication. […] The phage titer was determined by plaque forming units (PFU). […] After 6˜8 hours incubation, the plaque forming units were counted and phage solutions were diluted to 10^6˜10^7 PFU/ml with the minimal medium for further use.
(§5) Phage Inactivation. […] The viral inactivation ability was determined by phage titer as stated above and calculated by log (N0/N), where N is the PFU of the phage solution after exposure to CPEs/OPEs; N0 represents the PFU of corresponding negative control (without CPEs, OPEs or UV-irradiation). […]

[4] = tested on: MS2 and T4 bacteriophages; experiment: Antiviral activity, general statement; type: cell-based
E.coli = experiment: Dead/live assay, biocidal activity against E.coli; type: cell-based; details: under 365 nm radiation
Experimental: (§6) Dead/live assays were performed to test the biocidal activity of EO-OPE-1(C3, A), EO-OPE-1 (C2, A), EO-OPE-1 (C3, S) and EO-OPE-1 (Th, C3, A) against E.coli, S.epidermis, and S.aureus. E.coli, S.epidermis, and S.aureus were cultured in 50 mL of Difco™ Nutrient broth (LOT 4057492, Becton, Dickinson and Company, Sparks, Md. 21152 USA), Difco™ Nutrient broth (LOT 4057492, Becton, Dickinson and Company, Sparks, Md. 21152 USA), and BBL™ Brain Heart Infusion (LOT 8263271, Becton, Dickinson and Company, Sparks, Md. 21152 USA), respectively, for 18 h at 37° C. under shaking. The bacteria were collected by centrifuging 50 mL of culture at 4,000 rpm in an Eppendorf centrifuge for 15 min at 4° C. […] Bacterial concentrations were measured and normalized using a disposal hemocytometer (INCYTO Co., Ltd), counts being 2.5˜3.0×10^7/mL. […]
(§7) Dead/live assays were carried out using two sets of stains: SYTO 9/Propidium iodide for E.coli and SYTO 24/Propidium iodide for S.epidermis and S.aureus. SYTO 9 and SYTO 24 are cell membrane permeant nucleic acid stains with green (˜498 nm for SYTO 9 and ˜515 nm for SYTO 24) fluorescence and used to stain both live and dead cells; Propidium iodide is a red-fluorescent nucleic acid stain that is membrane impermeable to viable cells but stains DNA or RNA of dead cells with comprised membranes and emits red (˜617 nm) fluorescence, indicating cell death. […]

S.aureus = experiment: Dead/live assay, biocidal activity against S.aureus; type: cell-based; details: for killing of S. aureus: under 365 nm radiation; for light activated death of S. aureus: light and dark conditions, 0.1 to 5 μg/mL, various time points (FIGS. 22-25)
Experimental: as §1, §2
Experiments similar to those described in Example 1 above were performed using TM and OPE1-DABCO against S. Aureus. FIG. 22 is a graph showing TM vs. 7×10^7/mL S. aureus under light and dark conditions at concentrations of 0.1 and 1 μg/mL and at various time points (5, 10, 15, 30, 45, and 60 minutes). FIG. 23 is a graph showing EO-OPE1-DABCO vs 6×10^7/mL S. aureus under light and dark conditions at different concentrations of 0.1, 1, and 5 μg/mL and at various time points. FIG. 24 is a graph showing EO-OPE1-DABCO vs S. Aureus under light and dark conditions at a concentration of 1 μg/mL and at various time points. FIG. 25 is a graph showing EO-OPE1-DABCO vs S. Aureus under light and dark conditions at different concentrations of 0.1 and 1 μg/mL and at various time points.

S.epidermis = experiment: Dead/live assay, biocidal activity against S.epidermis; type: cell-based, Staphylococcus epidermis; details: under 365 nm radiation
Experimental: as §6, §7

T4 phage = experiment: TEM of viral morphology damage, T4; set-up: species or system Bacteriophage T4; details: 50 ug/ml, dark and irradiated (FIGS. 33, 35, 37, 39)
Experimental: (§8) Transmission Electron Microscopy. High concentration of model viruses (˜10^11 PFU/ml for T4 phage, ˜10^12 PFU/ml for MS2 phage) and CPE/OPE (50 ug/ml) was used for TEM imaging (TEM images were generated in the UNM Electron Microscopy Shared Facility using a Hitachi H7500 transmission electron microscope.) Phage samples were prepared by adding 5 uL phage solutions onto carbon-coated copper grids (freshly cleaned by plasma cleaner) and standing for 2 minutes then rinsing with pure water. The negative stain, 2% aqueous solution of uranyl acetate, was adding onto the grids and standing for 2 minutes, the excess stain was removed by filter paper. The grid was dried in air.

MS2 phage = experiment: TEM of viral morphology damage, MS2; set-up: species or system Bacteriophage MS2; details: 50 ug/ml, dark and irradiated (FIGS. 34, 36, 38, 40)
Experimental: as §8

bacteriophage T4 = experiment: Phage inactivation, phage titer (PFU), T4; type: cell-based; details: 10 ug/ml, in the dark, 1 hour
Experimental: as §4, §5

SMILES	solubility in CH3OH (Solubility in solvents)	solubility in DMF and DMSO (Solubility in solvents)	solubility in water (Solubility in solvents)	light-induced biocidal activity [1]	absorbance intensity after 30 min relative to that measured at 1 min [2]	Fluorescence quantum yields(Φf)* ([2]; in water)	transient absorption (TA) intensity, comparison in words [3]	τ3/intensity in H2O ([3]; in H2O)	τ3/λmax(nm) in H2O ([3]; in H2O) [nm]	τ3/μs in H2O (triplet lifetime) ([3]; in H2O)	antiviral activity [4]	killing of E. coli (E.coli)	killing of S. aureus (S.aureus)	killing of S. epidermis (S.epidermis)	light activated death of S. aureus (S.aureus)	further results
C[N+](C)(C)CCOc1ccc(C#Cc2ccc(C#Cc3ccc(OCC[N+](C)(C)C)cc3)cc2)cc1.[I-].[I-] [EO-OPE-1 (C2, A)]	moderately soluble	quite soluble	poorly soluble	dramatic light-induced biocidal activity	the same	0.59 ± 0.05	comparable	0.065	541	17.9 μs and 18.7 μs	–	–	–	–	–	–
C[N+](C)(C)CCCOc1ccc(C#Cc2ccc(C#Cc3ccc(OCCC[N+](C)(C)C)cc3)cc2)cc1.[I-].[I-] [EO-OPE-1 (C3, A)]	moderately soluble	quite soluble	poorly soluble	dramatic light-induced biocidal activity	around 2 times	0.52 ± 0.05	comparable	0.07	545	17.9 μs	significant antiviral activity	–	–	–	–	inactivation of MS2 phage in the presence of UV irradiation (bacteriophage MS2): enhanced inactivation; Fluorescence quantum yields(Φf)* ([2]; in water; A)): 0.59; τ3/μs in H2O (triplet lifetime) ([3]; in H2O; A)): 5.2 μs
O=S(=O)([O-])CCCOc1ccc(C#Cc2ccc(C#Cc3ccc(OCCCS(=O)(=O)[O-])cc3)cc2)cc1.[Na+].[Na+] [EO-OPE-1 (C3, S)]	moderately soluble	quite soluble	poorly soluble	dramatic light-induced biocidal activity; also recorded: relatively poor light-induced biocidal activity	1.5 times	0.46 and 0.50 ± 0.07	comparable	0.06	543	–	–	kill	kill	kill	–	–
C[N+](C)(C)CCCOc1ccc(C#Cc2ccc(C#Cc3ccc(OCCC[N+](C)(C)C)cc3)s2)cc1.[I-].[I-] [EO-OPE-1 (Th, C3, A)]	moderately soluble	quite soluble	poorly soluble	dramatic light-induced biocidal activity	the same	0.50 and 0.46 ± 0.02	highest TA intensity	0.15	510	7.2 μs	significant antiviral activity	kill	kill	kill	–	morphology of treated T4 phage by TEM (T4 phage): serious damage; log killing against S. aureus (S.aureus; concentration as low as 5 ng/mL, half hour irradiation): 5 log; morphology of treated MS2 phage by TEM (MS2 phage): Obvious morphology change; dark antiviral activity against T4 phage (bacteriophage T4): significant dark antiviral activity
CCCCCC[N+]12CC[N+](CCCOc3ccc(C#Cc4ccc(C#Cc5ccc(OCCC[N+]67CC[N+](CCCCCC)(CC6)CC7)cc5)cc4)cc3)(CC1)CC2.[Br-].[Br-].[Br-].[Br-] [EO-OPE-1-DABCO]	–	–	–	–	–	–	–	–	–	–	–	–	–	–	light activated death is clearly demonstrated	–
COc1cc(C#Cc2ccc(C#Cc3ccc(OCCC[N+](C)(C)C)cc3)cc2)cc(OC)c1OC.[I-] [TM]	–	–	–	–	–	–	–	–	–	–	–	–	–	–	light activated death is clearly demonstrated	–
